Molecular target: T1, SIRT1 (Homo sapiens, UniProt Q96EB6)
T1 sequence (Q96EB6 1-747): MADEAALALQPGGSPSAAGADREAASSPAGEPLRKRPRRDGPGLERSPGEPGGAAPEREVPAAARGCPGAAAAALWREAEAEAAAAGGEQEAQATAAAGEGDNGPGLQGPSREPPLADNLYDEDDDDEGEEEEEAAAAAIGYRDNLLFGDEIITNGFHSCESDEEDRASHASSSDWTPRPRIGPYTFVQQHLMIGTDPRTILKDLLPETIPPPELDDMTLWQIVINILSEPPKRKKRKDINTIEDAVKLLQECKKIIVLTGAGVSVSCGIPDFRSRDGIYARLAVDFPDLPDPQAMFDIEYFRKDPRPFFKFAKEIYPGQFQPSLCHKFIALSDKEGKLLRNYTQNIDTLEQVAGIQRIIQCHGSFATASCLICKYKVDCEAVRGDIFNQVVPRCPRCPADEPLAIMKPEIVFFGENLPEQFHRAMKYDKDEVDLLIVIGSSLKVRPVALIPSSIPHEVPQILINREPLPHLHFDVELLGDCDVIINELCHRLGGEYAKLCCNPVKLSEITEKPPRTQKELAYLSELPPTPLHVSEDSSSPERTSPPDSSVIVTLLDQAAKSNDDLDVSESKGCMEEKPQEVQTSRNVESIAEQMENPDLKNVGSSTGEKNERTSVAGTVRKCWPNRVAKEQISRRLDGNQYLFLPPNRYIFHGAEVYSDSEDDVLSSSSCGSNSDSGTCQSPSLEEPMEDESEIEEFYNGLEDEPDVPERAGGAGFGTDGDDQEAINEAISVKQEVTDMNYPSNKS
Experiment: Mass spectrometry based SIRT1 deacetylase activation assay
Type: biochemical
Conditions: for EC1.5 μM: 0.5 μM peptide substrate, 120 μM βNAD+, 10 nM SIRT1, 25 min, 25° C.; for Emax: 25 min, mass spectrometry assay, read-out: % Fold Act. (percent maximum fold activation)

SMILES | EC1.5 μM | Emax [%]
O=C(Nc1cccc2c(=O)cc(-c3cccnc3C(F)(F)F)oc12)c1cscn1 [Compound 307] | A (EC1-5<1.0) | > 200
O=C(Nc1cccc2c(=O)cc(-c3cnccc3C(F)(F)F)oc12)c1cnccn1 [Compound 308] | B (EC1.5 1-25 μM) | > 200
O=C(Nc1cccc2c(=O)cc(-c3cnccc3C(F)(F)F)oc12)c1cscn1 [Compound 309] | B (EC1.5 1-25 μM) | > 200
Cc1cnc(NC(=O)c2cccc3c(=O)cc(-c4cnccc4C(F)(F)F)oc23)s1 [Compound 310] | B (EC1.5 1-25 μM) | < 200
O=C1CCC(C(=O)Nc2cccc3c(=O)cc(-c4ccccc4C(F)(F)F)oc23)N1 (stereo not shown) [Compound 313, 5-oxo-N-(4-oxo-2-(2-(trifluoromethyl)phenyl)-4H-chromen-8-yl)pyrrolidine-2-carboxamide] | B (EC1.5 1-25 μM) | > 200
CN1CCCC1C(=O)Nc1cccc2c(=O)cc(-c3ccccc3C(F)(F)F)oc12 (stereo not shown) [Compound 317] | B (EC1.5 1-25 μM) | < 200
O=C(Nc1cccc2c(=O)cc(-c3ccccc3C(F)(F)F)oc12)c1cccnc1OCC(O)CO (stereo not shown) [Compound 321] | B (EC1.5 1-25 μM) | > 200
O=c1cc(-c2ccccc2C(F)(F)F)oc2c(NS(=O)(=O)c3cccnc3)cccc12 [Compound 326, N-(4-oxo-2-(2-(trifluoromethyl)phenyl)-4H-chromen-8-yl)pyridine-3-sulfonamide] | C (EC1.5>25 μM) | < 200
O=C(Nc1cccc2c(=O)cc(-c3ccccc3Cl)oc12)c1cccc(N2CCCC2)c1 [Compound 329] | A (EC1-5<1.0) | > 200
O=C(Nc1cccc2c(=O)cc(-c3ccccc3Cl)oc12)c1cccnc1OCC(O)CO (stereo not shown) [Compound 332] | B (EC1.5 1-25 μM) | > 200
O=C(Nc1cccc2c(=O)cc(-c3ccccc3Cl)oc12)c1cccc(CN2CCCC2)c1 [Compound 333] | B (EC1.5 1-25 μM) | > 200
O=C(Nc1cccc2c(=O)cc(-c3ccccc3Cl)oc12)c1cccc(OCC(O)CO)n1 (stereo not shown) [Compound 334] | A (EC1-5<1.0) | > 200
O=C(Nc1cccc2c(=O)cc(-c3ccccc3Cl)oc12)c1ncccn1 [Compound 335] | A (EC1-5<1.0) | > 200
Cn1nccc1C(=O)Nc1cccc2c(=O)cc(-c3ccccc3Cl)oc12 [Compound 337] | A (EC1-5<1.0) | > 200
O=C(Nc1cccc2c(=O)cc(-c3ccccc3C(F)F)oc12)c1cccc(OCC(O)CO)n1 (stereo not shown) [Compound 338] | A (EC1-5<1.0) | > 200

Other lines, results leading:

EC1.5 μM | Emax [%] | SMILES
B (EC1.5 1-25 μM) | > 200 | O=C(Nc1cccc2c(=O)cc(-c3ccccc3C(F)(F)F)oc12)c1cccc(N2CCOCC2)c1 [Compound 311]
B (EC1.5 1-25 μM) | > 200 | O=C(Nc1cccc2c(=O)cc(-c3ccccc3C(F)(F)F)oc12)c1cccc(N2CCCC2)c1 [Compound 312]
A (EC1-5<1.0) | > 200 | O=C(Nc1cccc2c(=O)cc(-c3ccccc3C(F)(F)F)oc12)c1cccc(CN2CCOCC2)n1 [Compound 315]
A (EC1-5<1.0) | > 200 | O=C(Nc1cccc2c(=O)cc(-c3ccccc3C(F)(F)F)oc12)c1cncc(N2CCOCC2)n1 [Compound 316]
A (EC1-5<1.0) | > 200 | O=C(Nc1cccc2c(=O)cc(-c3ccccc3C(F)(F)F)oc12)c1cccc(OCC(O)CO)n1 (stereo not shown) [Compound 318]
A (EC1-5<1.0) | > 200 | O=C(Nc1cccc2c(=O)cc(-c3ccccc3Cl)oc12)c1cncc(N2CCOCC2)n1 [Compound 319]
A (EC1-5<1.0) | > 200 | O=C(Nc1cccc2c(=O)cc(-c3ccccc3C(F)(F)F)oc12)c1cccc(CN2CCCC2)n1 [Compound 320]
A (EC1-5<1.0) | > 200 | O=C(Nc1cccc2c(=O)cc(-c3ccccc3C(F)(F)F)oc12)c1cccc(N2CCOCC2)n1 [Compound 322]
A (EC1-5<1.0) | > 200 | O=C(Nc1cccc2c(=O)cc(-c3ccccc3C(F)(F)F)oc12)c1cccc(N2CCCC2)n1 [Compound 323]
A (EC1-5<1.0) | > 200 | O=C(Nc1cccc2c(=O)cc(-c3ccccc3Cl)oc12)c1cccc(N2CCOCC2)n1 [Compound 324]
A (EC1-5<1.0) | > 200 | O=C(Nc1cccc2c(=O)cc(-c3ccccc3Cl)oc12)c1cccc(N2CCCC2)n1 [Compound 325]
A (EC1-5<1.0) | > 200 | O=C(Nc1cccc2c(=O)cc(-c3ccccc3Cl)oc12)c1cccc(CN2CCCC2)n1 [Compound 327]
B (EC1.5 1-25 μM) | > 200 | O=C(Nc1cccc2c(=O)cc(-c3ccccc3C(F)(F)F)oc12)c1cccc(CN2CCOCC2)c1 [Compound 328]
B (EC1.5 1-25 μM) | > 200 | O=C(Nc1cccc2c(=O)cc(-c3ccccc3Cl)oc12)c1cccc(CN2CCOCC2)c1 [Compound 330]
A (EC1-5<1.0) | > 200 | O=C(Nc1cccc2c(=O)cc(-c3ccccc3Cl)oc12)c1cccc(CN2CCOCC2)n1 [Compound 331]
B (EC1.5 1-25 μM) | > 200 | O=C(Nc1cccc2c(=O)cc(-c3ccccc3Cl)oc12)c1cccc(N2CCOCC2)c1 [Compound 336]
A (EC1-5<1.0) | > 200 | O=C(Nc1cccc2c(=O)cc(-c3ccccc3C(F)F)oc12)c1cccc(CN2CCOCC2)n1 [Compound 339]

Source: US8987258B2 (priority 2008, dated 2015)
